Values quoted from earlier work in patent US20100233107A1, “MEDICATED TONING LOTION” (priority 2009, published 2010).

solubility in water: approximately 0.2 % by weight | volume of water in which one gram dissolves (one gram of salicylic acid): 460 mL
SMILES: O=C(O)c1ccccc1O [salicylic acid]
